According to ChEMBL document CHEMBL1132828, “Pharmacophore identification of a specific CXCR4 inhibitor, T140, leads to development of effective anti-HIV agents with very high selectivity indexes” (Bioorg Med Chem Lett, 2000):

Tests used:
[1] = Ratio of cytotoxic concentration (CC50) in test-I to that of EC50 of compound; Not tested; assay type: functional
MT4 [2] = assay: Compound was tested for reduction of the viability of mock infected MT-4 cell in test-I; assay type: functional; conditions: Homo sapiens
MT4 [3] = assay: Compound was tested for reduction of the viability of mock infected MT-4 cell in test-II; assay type: functional; conditions: Homo sapiens
[4] = Ratio of cytotoxic concentration (CC50) in test-II to that of EC50 of compound; assay type: functional, Homo sapiens
[5] = tested on: Human immunodeficiency virus 1; assay: Inhibition of HIV-induced cytopathogenicity in MT-4 cell (ZIDOVUDINE control); assay type: functional, organism-based; conditions: Human immunodeficiency virus 1, MT4
[6] = Ratio of cytotoxic concentration (CC50) in test-I to that of EC50 of compound; assay type: functional, Homo sapiens

C[C@@H]1NC(=O)[C@H](Cc2ccc(O)cc2)NC(=O)[C@@H](NC(=O)[C@H](Cc2ccc3ccccc3c2)NC(=O)[C@H](CCCN=C(N)N)NC(=O)[C@@H](N)CCCN=C(N)N)CSSC[C@@H](C(=O)N[C@@H](CCCN=C(N)N)C(=O)O)NC(=O)[C@H](CCCNC(N)=O)NC(=O)[C@H](CCCN=C(N)N)NC(=O)[C@H](Cc2ccc(O)cc2)NC(=O)[C@@H]2CCCN2C(=O)[C@@H](CCCCN)NC(=O)[C@H](CCCCN)NC1=O
Ratio [1]: >4500 | CC50 (MT4 [2]): > 40 µM

Cc1cn([C@H]2C[C@H](N=[N+]=[N-])[C@@H](CO)O2)c(=O)[nH]c1=O [ZIDOVUDINE]
CC50 (MT4 [3]): < 20 µM | Ratio [4]: <410 | EC50 [5]: 0.048 µM | CC50 (MT4 [2]): 190 µM | Ratio [6]: 4000

NCCCC[C@H]1NC(=O)[C@H](CCCNC(N)=O)NC(=O)[C@H](CCCN=C(N)N)NC(=O)[C@H](Cc2ccc(O)cc2)NC(=O)[C@@H](NC(=O)[C@H](Cc2ccc3ccccc3c2)NC(=O)[C@H](CCCN=C(N)N)NC(=O)[C@@H](N)CCCN=C(N)N)CSSC[C@@H](C(=O)N[C@@H](CCCN=C(N)N)C(=O)O)NC(=O)[C@H](CCCNC(N)=O)NC(=O)[C@H](CCCN=C(N)N)NC(=O)[C@H](Cc2ccc(O)cc2)NC(=O)[C@@H]2CCCN2C1=O
CC50 (MT4 [3]): 270 µM | Ratio [4]: >16000 | CC50 (MT4 [2]): > 80 µM | Ratio [6]: >5000

NCCCC[C@@H]1NC(=O)[C@H](CCCN=C(N)N)NC(=O)[C@H](Cc2ccc(O)cc2)NC(=O)[C@@H](NC(=O)[C@H](Cc2ccc3ccccc3c2)NC(=O)[C@H](CCCN=C(N)N)NC(=O)[C@@H](N)CCCN=C(N)N)CSSC[C@@H](C(=O)N[C@@H](CCCN=C(N)N)C(=O)O)NC(=O)[C@H](CCCNC(N)=O)NC(=O)[C@H](CCCNC(N)=O)NC(=O)[C@H](Cc2ccc(O)cc2)NC(=O)[C@@H]2CCCN2C(=O)[C@@H](CCCCN)NC1=O
CC50 (MT4 [3]): 310 µM | Ratio [4]: 20000 | CC50 (MT4 [2]): > 80 µM | Ratio [6]: >5300
